How the values were obtained:
[1] = tested on: B. subtilis 168; assay: fitness (endpoint OD595 vs no drug) (fraction); higher = more growth
In short: (§1)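 Cultures at OD595 0.01 were dispensed into 384-well plates in TSB, LB Lennox or CY and incubated at 37 °C. Every 30 min for 14 h, OD595 was read and corrected by the first reading. Fitness is the optical density at entry into stationary phase relative to the robust mean of no-drug control wells, capped at 1.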

[2] = tested on: S. aureus Newman; assay: as above
In short: as §1

[3] = tested on: S. pneumoniae D39V; assay: as above
In short: as §1

[4] = tested on: B. subtilis 168; assay: Bliss interaction score (quartile over a dose matrix) (fitness difference); higher = more antagonism (negative = synergy)
In short: (§2)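 Fitness is OD595 at stationary-phase entry relative to the plate's robust no-drug mean, capped at 1. Single-drug fitness was inferred from combinations. The Bliss score is observed minus product-expected fitness, summarised by quartiles over technical, biological and donor/recipient replicates.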

[5] = tested on: S. aureus DSM 20231; assay: as above
In short: as §2

[6] = tested on: S. aureus Newman; assay: as above
In short: as §2

[7] = tested on: S. pneumoniae D39V; assay: as above
In short: as §2
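Wherever Bliss interaction score (quartile over a dose matrix) is given: first quartile when negative (synergy) and third quartile when positive (antagonism).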

C[C@@H]1O[C@@H]1P(=O)(O)O [Fosfomycin] + CC(C1CCC(C(O1)OC2C(CC(C(C2O)OC3C(C(C(CO3)(C)O)NC)O)N)N)N)NC [Gentamicin]
main component drawn
Conditions	fitness
[1], first compound 1.562 µg/mL, partner 0.0625 µg/mL	0.757
[1], first compound 3.124 µg/mL, partner 0.0625 µg/mL	0.629
[2], first compound 0.781 µg/mL, partner 0.5 µg/mL	0.705
[2], first compound 0.781 µg/mL, partner 1 µg/mL	0.802
[2], first compound 0.781 µg/mL, partner 2 µg/mL	0.796
[2], first compound 1.562 µg/mL, partner 0.5 µg/mL	0.585
[2], first compound 1.562 µg/mL, partner 1 µg/mL	0.65
[2], first compound 1.562 µg/mL, partner 2 µg/mL	0.666
[2], first compound 3.124 µg/mL, partner 0.5 µg/mL	0.422
[2], first compound 3.124 µg/mL, partner 1 µg/mL	0.455
[2], first compound 3.124 µg/mL, partner 2 µg/mL	0.464
[3], first compound 1.25 µg/mL, partner 2 µg/mL	0.96
[3], first compound 1.25 µg/mL, partner 4 µg/mL	0.944
[3], first compound 1.25 µg/mL, partner 8 µg/mL	0.948
[3], first compound 2.5 µg/mL, partner 2 µg/mL	0.941
[3], first compound 2.5 µg/mL, partner 4 µg/mL	0.896
[3], first compound 2.5 µg/mL, partner 8 µg/mL	0.876
[3], first compound 5 µg/mL, partner 2 µg/mL	0.715
[3], first compound 5 µg/mL, partner 4 µg/mL	0.674
[3], first compound 5 µg/mL, partner 8 µg/mL	0.72

fitness, [2], one replicate, main component drawn
Conditions	first compound 0.781 µg/mL	first compound 1.562 µg/mL	first compound 3.124 µg/mL
partner 0.375 µg/mL	0.589	0.554	0.236
partner 0.75 µg/mL	0.596	0.571	0.232
partner 1.5 µg/mL	0.537	0.447	0.119

main component drawn
Conditions	Bliss interaction score
[4]	0.152
[5]	-0.0757
[6]	0.152
[7]	-0.0335

O=C(O)c1cn(C2CC2)c2cc(N3CCNCC3)c(F)cc2c1=O [Ciprofloxacin] + CN1C2=CC=CC=C2N=C3C1=CC=CC3=O [Pyocyanin]
Conditions	fitness
[1], first compound 0.0098 µg/mL, partner 1.25 µg/mL	0.911
[1], first compound 0.0098 µg/mL, partner 2.5 µg/mL	0.809
[1], first compound 0.0098 µg/mL, partner 5 µg/mL	0.814
[1], first compound 0.0195 µg/mL, partner 2.5 µg/mL	0.703
[1], first compound 0.0195 µg/mL, partner 5 µg/mL	0.649
[2], first compound 0.0375 µg/mL, partner 1.25 µg/mL	0.601
[2], first compound 0.0375 µg/mL, partner 2.5 µg/mL	0.574
[2], first compound 0.0375 µg/mL, partner 5 µg/mL	0.38
[2], first compound 0.075 µg/mL, partner 1.25 µg/mL	0.578
[2], first compound 0.075 µg/mL, partner 2.5 µg/mL	0.533
[2], first compound 0.075 µg/mL, partner 5 µg/mL	0.26
[2], first compound 0.15 µg/mL, partner 1.25 µg/mL	0.0395
[2], first compound 0.15 µg/mL, partner 2.5 µg/mL	0.0384
[2], first compound 0.15 µg/mL, partner 5 µg/mL	0.0694
[3], first compound 0.125 µg/mL, partner 0.325 µg/mL	0.989
[3], first compound 0.125 µg/mL, partner 0.65 µg/mL	0.966
[3], first compound 0.125 µg/mL, partner 1.3 µg/mL	0.755
[3], first compound 0.25 µg/mL, partner 0.325 µg/mL	0.924
[3], first compound 0.25 µg/mL, partner 0.65 µg/mL	0.92

Conditions	fitness
[3], first compound 0.25 µg/mL, partner 1.3 µg/mL, one replicate	0.54

Conditions	Bliss interaction score
[4]	0.104
[5]	0.0671
[6]	-0.0511
[7]	0.0709

O=C(O)c1cn(C2CC2)c2cc(N3CCNCC3)c(F)cc2c1=O [Ciprofloxacin] + CN[C@@H]1[C@H](O[C@H]2[C@H](O[C@H]3[C@H](O)[C@@H](O)[C@H](N=C(N)N)[C@@H](O)[C@@H]3N=C(N)N)O[C@@H](C)[C@]2(O)C=O)O[C@@H](CO)[C@H](O)[C@H]1O [Streptomycin]
fitness
Conditions	partner 1 µg/mL	partner 2 µg/mL	partner 4 µg/mL	partner 8 µg/mL
[1], first compound 0.0098 µg/mL	–	0.861	–	–
[1], first compound 0.0195 µg/mL	–	0.601	–	–
[1], first compound 0.039 µg/mL	–	0.0408	0.0521	0.0363
[2], first compound 0.0375 µg/mL	0.737	0.7	–	–
[2], first compound 0.075 µg/mL	0.68	0.65	–	–
[2], first compound 0.15 µg/mL	–	0.0504	0.066	–
[3], first compound 0.125 µg/mL	–	0.916	0.936	0.909
[3], first compound 0.25 µg/mL	–	0.872	0.774	0.765

[3], partner 16 µg/mL, one replicate
Conditions	fitness
first compound 0.125 µg/mL	0.739
first compound 0.25 µg/mL	0.668
first compound 0.5 µg/mL	0.379

Conditions	Bliss interaction score
[4]	-0.109
[5]	-0.0869
[6]	0.0876
[7]	-0.0549

Cc1ncc([N+](=O)[O-])n1CCO [Metronidazole] + CN(C)c1cc(NC(=O)CNC(C)(C)C)c(O)c2c1C[C@H]1C[C@H]3[C@H](N(C)C)C(O)=C(C(N)=O)C(=O)[C@@]3(O)C(O)=C1C2=O [Tigecycline]
fitness
Conditions	first compound 0.625 µg/mL	first compound 1.073 µg/mL	first compound 1.25 µg/mL	first compound 2.145 µg/mL	first compound 2.5 µg/mL	first compound 4.29 µg/mL	first compound 5 µg/mL
[1], partner 0.039 µg/mL	0.963	–	0.977	–	≥ 1	–	–
[1], partner 0.078 µg/mL	0.942	–	0.94	–	0.976	–	–
[1], partner 0.156 µg/mL	0.944	–	0.963	–	0.938	–	–
[2], partner 0.039 µg/mL	0.987	–	≥ 1	–	0.995	–	–
[2], partner 0.078 µg/mL	≥ 1	–	0.981	–	≥ 1	–	–
[2], partner 0.156 µg/mL	0.966	–	0.977	–	≥ 1	–	–
[3], partner 0.65 µg/mL	–	0.931	0.965	0.925	0.968	0.935	0.964
[3], partner 1.3 µg/mL	–	0.931	0.94	0.938	0.943	0.949	0.952
[3], partner 2.6 µg/mL	–	0.921	0.957	0.911	0.964	0.943	0.952

fitness, one replicate
Conditions	first compound 0.625 µg/mL	first compound 0.781 µg/mL	first compound 1.25 µg/mL	first compound 1.562 µg/mL	first compound 2.5 µg/mL	first compound 3.124 µg/mL
[1], partner 0.125 µg/mL	≥ 1	–	≥ 1	–	≥ 1	–
[1], partner 0.25 µg/mL	0.963	–	0.942	–	0.967	–
[1], partner 0.5 µg/mL	0.917	–	0.927	–	0.968	–
[2], partner 0.039 µg/mL	–	≥ 1	–	0.971	–	0.932
[2], partner 0.078 µg/mL	–	≥ 1	–	≥ 1	–	≥ 1
[2], partner 0.156 µg/mL	–	≥ 1	–	≥ 1	–	0.959

Conditions	Bliss interaction score
[4]	-0.0624
[5]	0.0589
[6]	0.0458
[7]	0.0439

Cc1ncc([N+](=O)[O-])n1CCO [Metronidazole] + CN[C@@H]1[C@H](O[C@H]2[C@H](O[C@H]3[C@H](O)[C@@H](O)[C@H](N=C(N)N)[C@@H](O)[C@@H]3N=C(N)N)O[C@@H](C)[C@]2(O)C=O)O[C@@H](CO)[C@H](O)[C@H]1O [Streptomycin]
fitness
Conditions	partner 1 µg/mL	partner 2 µg/mL	partner 4 µg/mL	partner 8 µg/mL
[1], first compound 0.625 µg/mL	–	0.996	0.657	0.0295
[1], first compound 1.25 µg/mL	–	0.997	0.633	0.0395
[1], first compound 2.5 µg/mL	–	0.995	0.636	0.0352
[2], first compound 0.625 µg/mL	0.91	0.956	0.909	–
[2], first compound 0.781 µg/mL	0.966	0.899	–	–
[2], first compound 1.25 µg/mL	0.986	0.967	0.935	–
[2], first compound 1.562 µg/mL	≥ 1	0.917	–	–
[2], first compound 2.5 µg/mL	0.928	0.938	0.889	–
[2], first compound 3.124 µg/mL	0.982	0.926	–	–
[3], first compound 1.073 µg/mL	–	0.903	0.992	0.945
[3], first compound 1.25 µg/mL	–	–	0.992	0.891
[3], first compound 2.145 µg/mL	–	0.935	0.977	0.932
[3], first compound 2.5 µg/mL	–	–	0.998	0.893
[3], first compound 4.29 µg/mL	–	0.871	0.905	0.945
[3], first compound 5 µg/mL	–	–	0.981	0.907

fitness, [3], one replicate
Conditions	first compound 1.25 µg/mL	first compound 2.5 µg/mL	first compound 5 µg/mL
partner 2 µg/mL	≥ 1	≥ 1	0.987
partner 16 µg/mL	0.815	0.787	0.818

Conditions	Bliss interaction score
[4]	0.0729
[5]	0.0693
[6]	0.0764
[7]	0.0448
